Consider eight compounds from the NIST ThermoML archive (doi:10.1016/j.fluid.2006.12.001).

The data set in a line: xn = mol fraction of the nth substance listed. The following applies: 303.2 K; 101 kPa; Liquid; Taylor dispersion method; x1 = 0.
As to `CCCCn1cc[n+](C)c1.F[P-](F)(F)(F)(F)F` [1-butyl-3-methylimidazolium hexafluorophosphate] + O, the binary diffusion coefficient stood at 1.25e-09 m2/s.
With `CCCCn1cc[n+](C)c1.F[B-](F)(F)F` [1-butyl-3-methylimidazolium tetrafluoroborate] + O the figure was 1.3e-09 m2/s; with `CCn1cc[n+](C)c1.F[P-](F)(F)(F)(F)F` [1-ethyl-3-methylimidazolium hexafluorophosphate] + O, 1.41e-09 m2/s.
In the case of `CCn1cc[n+](C)c1.F[B-](F)(F)F` [1-ethyl-3-methylimidazolium tetrafluoroborate] + O, the binary diffusion coefficient was determined as 1.52e-09 m2/s.
On to `CCCCCCn1cc[n+](C)c1.F[P-](F)(F)(F)(F)F` [1-hexyl-3-methylimidazolium hexafluorophosphate] + O, for which the binary diffusion coefficient turned out to be 1.11e-09 m2/s.
With `CCCCCCn1cc[n+](C)c1.F[B-](F)(F)F` [1-hexyl-3-methylimidazolium tetrafluoroborate] + O, the binary diffusion coefficient was found to be 1.24e-09 m2/s.
As for `CCCCCCCC[n+]1ccn(C)c1.F[B-](F)(F)F` [1-methyl-3-octylimidazolium tetrafluoroborate] + O, the figure is 1.14e-09 m2/s; as for `CCCCCCCC[n+]1ccn(C)c1.F[P-](F)(F)(F)(F)F` [1-octyl-3-methylimidazolium hexafluorophosphate] + O, 1.06e-09 m2/s.
